Assay results: patent USRE42700E1, “Induction of apoptosis in cancer cells” (Sanford-Burnham Medical Research Institute, priority 2001, dated 2011)
Peptide text beside a SMILES is read from it. * marks the point of attachment. Cbz = O=C(OCc1ccccc1)*; CH2F = FC*

Assays:
[1] = system: M07e or patient leukemia cells; assay: effect of kinase inhibitors on 3-Cl-AHPC-mediated apoptosis; assay type: cell-based, human; conditions: at concentrations inhibiting p38 or ERK activation
Method: After 3-Cl-AHPC treatment, cells were harvested, washed with PBS and resuspended at 1×10^6 cells/ml. Cell suspensions (50 μl) were stained with 5 ml of acridine orange solution (100 mg/ml) in PBS in the dark. Cells displaying fragmented DNA were detected using a fluorescent microscope. Apoptotic cells were also detected using a kit. Cells that incorporated fluorescein labeled deoxyuridine triphosphate were detected using flow cytometry.

[2] = system: Human Breast Cancer Cells; assay: apoptosis induction / cell death in breast cancer cells (all lines); assay type: cell-based; conditions: 10 μM
[3] = system: leukemic blasts from patients (AML or CML in blast crisis); assay: apoptosis in primary cultures of patient leukemic blasts; assay type: cell-based, human
Method: (§1) Cell Growth: IL-3-transfected M07e cells have been described by Thacker, D. J., et al., Leukemia 8: 871-877 (1994). Cells were grown in RPMI supplemented with 5 percent heat-inactivated fetal bovine serum (FBS) and 25 μg/ml gentamycin in a […], 5% CO2, and 100% humidity environment. Leukemic cells were obtained from patients who met the criteria for the diagnosis of AML or CML in blast crisis (see Table 1). Studies were approved by the Wayne State University Institutional Review Board. Informed consent was obtained from all patients. Leukemic blasts from patients were isolated using Ficoll hypaque. Cells at the interface between plasma and red blood cells were diluted with sterile PBS, then layered over Ficoll hypaque (1.077 density), and the leukemic cells collected at the interface. The sample to be studied represented greater than 90% blasts. The patient leukemia samples were grown in RPMI medium supplemented with 10% FBS, gentamycin (25 μg/ml), IL-3 (20 ng/ml), SCF (25 ng/ml), GM-CSF (20 ng/ml) and G-CSF (20 ng/ml). Cell growth was assessed using a cell proliferation kit.
(§2) Apoptosis Quantification: Staining of apoptotic cells was performed as described by Gavreli, Y., et al., (J. Cell. Biol. 119: 493-501 (1992)) and Whitacre, C. M., et al., (Cancer Res. 55: 3697-3701 (1995)). After 3-Cl-AHPC treatment, cells were harvested, washed with PBS and resuspended at 1×10^6 cells/ml. Cell suspensions (50 μl) were stained with […] of acridine orange solution ([…]) in PBS in the dark. Cells displaying fragmented DNA were detected using a fluorescent microscope. Apoptotic cells were also detected using a kit. Cells that incorporated fluorescein labeled deoxyuridine triphosphate were detected using flow cytometry.

[4] = system: human acute megakaryocytic leukemia cell line M07e; assay: M07e cell growth / proliferation; assay type: cell-based; conditions: varying concentrations over time
Method: as §1

[5] = system: acute promyelocytic leukemia (APL); conditions: cited from earlier work
[6] = system: human acute megakaryocytic leukemia cell line M07e; assay: M07e apoptosis quantification; assay type: cell-based
Method: as §2

[7] = system: ERK, p38 and JNK kinases in M07e and patient leukemic cells; assay: activation of MAPK pathways (phospho-p38, phospho-ERK, phospho-JNK Western blots); assay type: cell-based, human; conditions: 50 μM inhibitor
Method: (§3) Western Blots: Western blots were performed according to the protocol of Sheikh, M. S., et al., (Oncogene, 9: 3407-3415 (1994)). Logarithmically growing cells were treated with 3-Cl-AHPC for various times and cells were harvested and lysed in Laemmli lysis buffer (0.5 M Tris-HCl, pH 6.8, 0.002M EDTA, 10% glycerol, 10% sodium dodecyl sulfate (SDS), and 5% β-mercaptoethanol). Protein lysates (50 μg/lane) were electrophoresed on 12% SDS-polyacrylamide gels and transferred to nitrocellulose membranes. Membranes were blocked with 5% nonfat dried milk in PBS/0.5% Tween 20 and then incubated with the appropriate antibodies. Horseradish peroxidase-conjugated rabbit anti-mouse IgG was used as the secondary antibody, and bands were developed using the Amersham ECL non-radioactive method.

Bcl-XL in leukemic cells = assay: Bcl-XL cleavage by Western blot; assay type: cell-based, human; conditions: 50 μM inhibitor with 1 μM 3-Cl-AHPC, 24 hours
Method: as §3

[8] = system: ALL cells obtained from patients; conditions: background section; cited from earlier work
[9] = system: human leukemia cell line HL-60R; conditions: cited from earlier work
cell line ALL-REH = conditions: ALL-REH cells; cited from earlier work
AML cells = assay: growth of AML cells in SCID mice; assay type: in vivo, mouse
cell line K562 = conditions: cited from earlier work
RXRs = conditions: cited from earlier work
RARβ = RARβ (Homo sapiens, UniProt P10826); conditions: 1 μM; cited from earlier work
RARγ = RARγ (Homo sapiens, UniProt P13631); conditions: 1 μM; cited from earlier work
[10] = system: p38 and JNK kinases (HL-60R human leukemia cell line); conditions: cited from earlier work
RAR subtype α = RAR subtype α (Homo sapiens, UniProt P10276); conditions: cited from earlier work
[11] = system: mouse mammary adenocarcinoma 16/C; assay: mouse mammary adenocarcinoma 16/C in syngeneic female C3H mice
Method: The ability of 3-Cl-AHPC to inhibit the in vivo growth of breast carcinoma cells was tested using syngeneic mouse mammary and human breast adenocarcinoma SCID xenograft models.

[12] = total dose 133 mg/kg, days 1, 2, 5-9
[13] = total dose 150 mg/kg, days 1, 2, 7-9

Sequence of RAR subtype α (P10276 whole entry): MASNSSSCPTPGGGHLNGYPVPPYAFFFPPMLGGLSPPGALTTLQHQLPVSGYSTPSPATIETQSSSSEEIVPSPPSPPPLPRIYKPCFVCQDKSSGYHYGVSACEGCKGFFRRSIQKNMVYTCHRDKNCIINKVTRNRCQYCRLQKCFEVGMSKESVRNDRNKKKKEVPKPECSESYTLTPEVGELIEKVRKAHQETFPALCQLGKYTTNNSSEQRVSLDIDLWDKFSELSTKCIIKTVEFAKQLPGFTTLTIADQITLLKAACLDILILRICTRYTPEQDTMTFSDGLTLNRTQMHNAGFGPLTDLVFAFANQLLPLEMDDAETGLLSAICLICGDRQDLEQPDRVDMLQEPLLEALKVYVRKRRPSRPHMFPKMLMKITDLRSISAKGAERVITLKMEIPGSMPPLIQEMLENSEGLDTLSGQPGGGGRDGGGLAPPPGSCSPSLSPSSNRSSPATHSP
Sequence of RARγ (P13631 whole entry, species assumed): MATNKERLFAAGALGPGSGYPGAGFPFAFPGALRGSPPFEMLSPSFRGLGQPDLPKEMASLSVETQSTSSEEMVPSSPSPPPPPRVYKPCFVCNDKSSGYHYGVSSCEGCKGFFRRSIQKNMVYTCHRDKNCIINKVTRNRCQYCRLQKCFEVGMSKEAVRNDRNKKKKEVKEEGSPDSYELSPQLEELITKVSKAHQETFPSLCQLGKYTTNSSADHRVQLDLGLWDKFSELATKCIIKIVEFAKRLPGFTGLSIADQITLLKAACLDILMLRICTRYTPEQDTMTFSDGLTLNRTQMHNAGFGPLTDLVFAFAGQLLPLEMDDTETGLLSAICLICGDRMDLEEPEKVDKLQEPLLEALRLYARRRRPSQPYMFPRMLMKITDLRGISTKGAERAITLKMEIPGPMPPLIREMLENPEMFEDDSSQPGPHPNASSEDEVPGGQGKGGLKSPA
Sequence of RARβ (P10826 whole entry, species assumed): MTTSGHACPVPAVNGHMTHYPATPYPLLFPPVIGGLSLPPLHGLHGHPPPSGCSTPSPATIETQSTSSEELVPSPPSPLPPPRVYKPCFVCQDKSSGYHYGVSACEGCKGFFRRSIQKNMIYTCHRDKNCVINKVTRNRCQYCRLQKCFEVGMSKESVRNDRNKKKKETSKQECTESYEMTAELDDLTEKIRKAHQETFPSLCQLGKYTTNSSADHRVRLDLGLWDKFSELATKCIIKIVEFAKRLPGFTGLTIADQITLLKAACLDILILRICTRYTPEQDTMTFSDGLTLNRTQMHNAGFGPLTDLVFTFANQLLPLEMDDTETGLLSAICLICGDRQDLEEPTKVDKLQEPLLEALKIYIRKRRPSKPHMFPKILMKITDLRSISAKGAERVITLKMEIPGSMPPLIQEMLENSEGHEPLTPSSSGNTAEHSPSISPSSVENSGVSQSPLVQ

COc1cccc(-c2cc(=O)c3ccccc3o2)c1N [PD98059]
effect on 3-Cl-AHPC-mediated apoptosis [1]: did not inhibit or enhance 3-Cl-AHPC-mediated apoptosis

CC1=C(/C=C/C(C)=C/C=C/C(C)=C/C(=O)O)C(C)(C)CCC1 [tRA, trans-retinoic acid, reference compound]
killing of breast carcinoma cells [2]: did not kill the cells | induction of apoptosis ([3]; 1 μM, 11 primary cultures): did not induce apoptosis | proliferation and apoptosis of primary human AML cultures (FIG. 13) ([3]; non-APL AML samples): had no effect | inhibition of proliferation [4]: did not significantly inhibit M07e proliferation | patients achieving a complete remission [5]: 90% | inhibition of proliferation [6]: did not significantly inhibit M07e proliferation (FIG. 2C) or induce apoptosis

Cc1cc(/C=C/C(=O)O)ccc1-c1ccc(O)c(C23CC4CC(CC(C4)C2)C3)c1 [Example 3, (E)-4-[3-(1-Adamantyl)-4-hydroxyphenyl]-3-methylcinnamic acid]
melting point: 232 to 234 °C

COC(=O)C[C@H](NC(=O)[C@H](C)NC(=O)[C@@H](NC(=O)OCc1ccccc1)C(C)C)C(=O)CF [ZVAD-fmk] (Cbz-Val-Ala-Asp(OMe)-CH2F)
effect on 3-Cl-AHPC activation of JNK [7]: not inhibited | effect on 3-Cl-AHPC activation of p38 and ERK [7]: prevent their activation by 3-Cl-AHPC | effect on 3-Cl-AHPC-mediated Bcl-XL cleavage (Bcl-XL in leukemic cells): inhibited Bcl-XL cleavage

O=C(O)/C=C/c1ccc(-c2ccc(O)c(C34CC5CC(CC(C5)C3)C4)c2)cc1Cl [Example 2, (E)-4-[3-(1-Adamantyl)-4-hydroxyphenyl]-2-chlorocinnamic acid]
melting point: 276 to 278 °C

Cc1cc(/C=C/C(=O)O)cc(C)c1-c1ccc(O)c(C23CC4CC(CC(C4)C2)C3)c1 [Example 4, (E)-4-[3-(1-Adamantyl)-4-hydroxyphenyl]-3,5-dimethylcinnamic acid]
melting point: 127 to 129 °C

O=C(O)c1ccc2cc(-c3ccc(O)c(C45CC6CC(CC(C6)C4)C5)c3)ccc2c1 [AHPN, 6-[3-(1-adamantyl)-4-hydroxyphenyl]-2-naphthalenecarboxylic acid]
apoptosis of ALL cells obtained from patients [8]: induced apoptosis | apoptosis of HL-60R cells (lack functional RARs) [9]: results in apoptosis | caspase 3 activity (cell line ALL-REH): stimulation of caspase 3 activity | treated mice tumor-free more than 150 days (considered cured) (AML cells; five treated mice): one out of the five | Tumor growth inhibition (AML cells; treated SCID mice): 85.7% | growth delay (AML cells; treated SCID mice): 21 days | log cell kill (AML cells; treated SCID mice): 2.1 | apoptosis of K562 cells (resistant to tRA) (cell line K562): results in apoptosis | binding to the RXRs (RXRs): does not bind | binding and transactivation of RARβ (RARβ): binds and transactivates | binding and transactivation of RARγ (RARγ): binds and transactivates | p38 and JNK activation ([10]; HL-60R human leukemia cell line): p38 and JNK activation | time to activation of the p38 and JNK kinases [10]: ≤ 1 h | binding and transactivation of RAR subtype α (RAR subtype α): extremely poor binder and transactivator | % body wt. loss ([11]; total dose 99 mg/kg, days 1-9): −4% | Drug deaths ([11]; total dose 99 mg/kg, days 1-9): 0/5 | T/C % ([11]; total dose 99 mg/kg, days 1-9): 47% | % body wt. loss [11, 12]: −11% | Drug deaths [11, 12]: 0/5 | Log cell kill [11, 12]: 0.49 | T/C % [11, 12]: 39% | % body wt. loss [11, 13]: −21% | Drug deaths [11, 13]: 1/5 | Log cell kill [11, 13]: 0.63 | T/C % [11, 13]: 30%
